Measured values: US12637478B2, “Compound, preparation method thereof, and antibiotic composition comprising same” (priority 2020, dated 2026)
In brackets after ≈: the same amount, converted by molar mass. Read-outs that look alike come from different tables or passages of the source.

Experiments:
C. difficile 152 = assay: MIC by agar dilution against Clostridioides difficile, test strain 14; format: cell-based
E. faecalis = assay: MIC by broth microdilution (aerobic pathogens), test strain 7; format: cell-based; settings: Enterococcus faecalis
Description: (§1) The antibacterial activity of the compounds of Examples 1 to 48 of the present invention against aerobic pathogens were evaluated by measuring the minimum concentration of the antibiotic capable of inhibiting bacterial growth by 90% compared to the growth of the non-drug treated control group. MIC was measured by the broth microdilution method based on CLSI standards [Reference: Clinical and Laboratory Standards Institute Document. (2000) Methods for Dilution Antimicrobial Susceptibility Test for Bacteria that Grow Aerobically-Fifth Edition: M7-A5. CLSI, Villanova, PA].
(§2) All 13 strains such as methicillin susceptible Staphylococcus aureus (MSSA), methicillin resistant Staphylococcus aureus (MRSA), Vancomycin resistant Staphylococcus aureus (VRSA), Staphylococcus epidermidis, methicillin resistant Staphylococcus epidermidis, Enterococcus faecalis, Vancomycin resistant Enterococcus faecalis, Enterococcus faecium, Vancomycin resistant Enterococcus faecium were used.

E. faecalis^LinR = assay: MIC by broth microdilution (aerobic pathogens), test strain 9; format: cell-based, Linezolid resistant Enterococcus faecalis; settings: Enterococcus faecalis; test strain 9, E. faecalis^LinR (linezolid resistant); read-out: MIC
Description: as §1, §2

C. difficile 181 = assay: MIC by agar dilution against Clostridioides difficile, test strain 19; format: cell-based
C. difficile 159 = assay: MIC by agar dilution against Clostridioides difficile, test strain 15; format: cell-based; settings: test strain 15, C. difficile 159, anaerobic, agar dilution, read-out: MIC
S. aureus^VR = assay: MIC by broth microdilution (aerobic pathogens), test strain 4; format: cell-based, Vancomycin resistant Staphylococcus aureus; settings: Staphylococcus aureus; test strain 4, S. aureus^VR (vancomycin resistant); read-out: MIC
Description: as §1, §2

C. difficile 174 = assay: MIC by agar dilution against Clostridioides difficile, test strain 18; format: cell-based
E. faecium = assay: MIC by broth microdilution (aerobic pathogens), test strain 10; format: cell-based; settings: Enterococcus faecium; test strain 10, E. faecium; read-out: MIC
Description: as §1, §2

E. faecium^LinR = assay: MIC by broth microdilution (aerobic pathogens), test strain 12; format: cell-based, Linezolid resistant Enterococcus faecium; settings: Enterococcus faecium; test strain 12, E. faecium^LinR (linezolid resistant); read-out: MIC
Description: as §1, §2

S. aureus^MS [1] = assay: MIC by broth microdilution (aerobic pathogens), test strain 2; format: cell-based; settings: Staphylococcus aureus; test strain 2, S. aureus^MS; read-out: MIC
Description: as §1, §2

S. epidermis^MR = assay: MIC by broth microdilution (aerobic pathogens), test strain 6; format: cell-based, Methicillin resistant Staphylococcus epidermidis; settings: Staphylococcus epidermidis
Description: as §1, §2

C. difficile 161 = assay: MIC by agar dilution against Clostridioides difficile, test strain 16; format: cell-based
S. aureus^MR = assay: MIC by broth microdilution (aerobic pathogens), test strain 3; format: cell-based, Methicillin resistant Staphylococcus aureus; settings: Staphylococcus aureus; test strain 3, S. aureus^MR (methicillin resistant); read-out: MIC
Description: as §1, §2

E. faecalis^VanA = assay: MIC by broth microdilution (aerobic pathogens), test strain 8; format: cell-based, Vancomycin resistant Enterococcus faecalis; settings: Enterococcus faecalis; test strain 8, E. faecalis^VanA (vancomycin resistant); read-out: MIC
Description: as §1, §2

S. aureus^MS [2] = assay: MIC by broth microdilution (aerobic pathogens), test strain 1; format: cell-based; settings: Staphylococcus aureus
Description: as §1, §2

C. difficile 9689 = assay: MIC by agar dilution against Clostridioides difficile, test strain 13; format: cell-based
C. difficile 173 = assay: MIC by agar dilution against Clostridioides difficile, test strain 17; format: cell-based
S. epidermis = assay: MIC by broth microdilution (aerobic pathogens), test strain 5; format: cell-based; settings: Staphylococcus epidermidis
Description: as §1, §2

E. faecium^VRE = assay: MIC by broth microdilution (aerobic pathogens), test strain 11; format: cell-based, Vancomycin resistant Enterococcus faecium; settings: Enterococcus faecium; test strain 11, E. faecium^VRE (vancomycin resistant); read-out: MIC
Description: as §1, §2

M. abscessus = assay: MIC by resazurin (REMA) assay against Mycobacterium, test strain 23; format: cell-based; settings: Mycobacteroides abscessus
Description: (§3) In order to test the antibacterial activity, the medium of Mycobacterium cultured to late log phase was diluted so as to be 4.0×10^5 cells/well in Middlebrook 7H10 agar medium (Difco) supplemented with 10% oleic acid, albumin, dextrose, catalase (OADC, Becton Dickinson) and 0.05% Tween 80 (Sigma Aldrich) and was dispensed into a 96-well plate. The compounds were treated so that DMSO was 1%, and after 3 days, a 0.025% resazurin (REMA) solution was dispensed, and the growth of the bacteria was confirmed after culturing. The MIC value was measured for the antibacterial activity through resazurin (excitation 530 nm, emission 590 nm).

M. intracelluare = assay: MIC by resazurin (REMA) assay against Mycobacterium, test strain 22; format: cell-based; settings: Mycobacterium intracellulare
Description: as §3

M. avium = assay: MIC by resazurin (REMA) assay against Mycobacterium, test strain 21; format: cell-based; settings: test strain 21, M. avium, resazurin, read-out: MIC
Description: as §3

[3] = test strain 14, C. difficile 152, anaerobic, agar dilution, read-out: MIC
[4] = test strain 7, E. faecalis, read-out: MIC
[5] = test strain 19, C. difficile 181, anaerobic, agar dilution, read-out: MIC
[6] = test strain 18, C. difficile 174, anaerobic, agar dilution, read-out: MIC
[7] = test strain 6, S. epidermis^MR (methicillin resistant), read-out: MIC
[8] = test strain 16, C. difficile 161, anaerobic, agar dilution, read-out: MIC
[9] = test strain 1, S. aureus^MS, read-out: MIC
[10] = test strain 13, C. difficile 9689, anaerobic, agar dilution, read-out: MIC
[11] = test strain 17, C. difficile 173, anaerobic, agar dilution, read-out: MIC
[12] = test strain 23, M. abscessus, resazurin, read-out: MIC
[13] = test strain 22, M. intracelluare, resazurin, read-out: MIC

Compound | MIC (S. aureus^MS [1]) [µg/mL] | MIC (S. aureus^MS [2]; [9]) [µg/mL] | MIC (M. abscessus; [12]) [µg/mL] | MIC (C. difficile 152; [3]) [µg/mL] | MIC (E. faecalis; [4]) [µg/mL] | MIC (E. faecalis^LinR) [µg/mL] | MIC (C. difficile 181; [5]) [µg/mL] | MIC (C. difficile 159) [µg/mL] | MIC (S. aureus^VR) [µg/mL] | MIC (C. difficile 174; [6]) [µg/mL] | MIC (E. faecium) [µg/mL] | MIC (E. faecium^LinR) [µg/mL] | MIC (S. epidermis^MR; [7]) [µg/mL] | MIC (C. difficile 161; [8]) [µg/mL] | MIC (S. aureus^MR) [µg/mL] | MIC (E. faecalis^VanA) [µg/mL] | MIC (C. difficile 9689; [10]) [µg/mL] | MIC (C. difficile 173; [11]) [µg/mL] | MIC (E. faecium^VRE) [µg/mL] | MIC (S. epidermis) [µg/mL] | also measured
C/C=C1\NC(=O)[C@H]([C@@H](C)O)NC(=O)c2csc(n2)-c2ccc(-c3nc(-c4nc(C(=O)NC5(C(=O)NCCCN6C(=O)CNC6=O)CC5)cs4)cs3)nc2-c2csc(n2)[C@H]([C@@H](C)O)NC(=O)c2csc(n2)[C@H](C(C)C)NC(=O)c2csc1n2 [Compound 9] | 0.25 (≈ 0.204 µM) | 0.25 (≈ 0.204 µM) | 0.37 (≈ 0.302 µM) | 0.06 (≈ 0.0489 µM) | 0.25 (≈ 0.204 µM) | 0.5 (≈ 0.408 µM) | 0.25 (≈ 0.204 µM) | 0.5 (≈ 0.408 µM) | 1 (≈ 0.815 µM) | 0.06 (≈ 0.0489 µM) | 0.5 (≈ 0.408 µM) | 0.5 (≈ 0.408 µM) | 0.25 (≈ 0.204 µM) | 0.5 (≈ 0.408 µM) | 1 (≈ 0.815 µM) | 0.5 (≈ 0.408 µM) | 0.5 (≈ 0.408 µM) | 0.06 (≈ 0.0489 µM) | 1 (≈ 0.815 µM) | 0.125 (≈ 0.102 µM) | –
C/C=C1\NC(=O)[C@H]([C@@H](C)O)NC(=O)c2csc(n2)-c2ccc(-c3nc(-c4nc(C(=O)NC5(C(=O)NN6CC(=O)N(CC(=O)OC)C6=O)CC5)cs4)cs3)nc2-c2csc(n2)[C@H]([C@@H](C)O)NC(=O)c2csc(n2)[C@H](C(C)C)NC(=O)c2csc1n2 [Compound 26] | – | – | – | – | – | – | – | – | – | – | – | – | – | – | – | – | – | – | – | 0.5 (≈ 0.398 µM) | MIC (C. difficile 152; 152): 0.5 µg/mL (≈ 0.398 µM); MIC (E. faecalis): 1 µg/mL (≈ 0.796 µM); MIC (C. difficile 181; 181): 1 µg/mL (≈ 0.796 µM); MIC (C. difficile 174; 174): 0.5 µg/mL (≈ 0.398 µM); MIC (S. epidermis^MR): 1 µg/mL (≈ 0.796 µM); MIC (C. difficile 161; 161): 0.5 µg/mL (≈ 0.398 µM); MIC (M. abscessus): 0.726 µg/mL (≈ 0.578 µM); MIC (M. intracelluare): 0.043 µg/mL (≈ 0.0342 µM); MIC (S. aureus^MS [2]): 1 µg/mL (≈ 0.796 µM); MIC (C. difficile 9689; 9689): 1 µg/mL (≈ 0.796 µM); MIC (C. difficile 173; 173): 0.5 µg/mL (≈ 0.398 µM)
CC[C@H]1OC(=O)[C@H](C)[C@@H](O[C@H]2C[C@@](C)(OC)[C@@H](O)[C@H](C)O2)[C@H](C)[C@@H](O[C@@H]2O[C@H](C)C[C@H](N(C)C)[C@H]2O)[C@](C)(OC)C[C@@H](C)C(=O)[C@H](C)[C@@H](O)[C@]1(C)O [Cla, Clarithromycin, reference compound] | – | – | 1.28 (≈ 1.71 µM) | – | – | – | – | – | – | – | – | – | – | – | – | – | – | – | – | – | MIC (M. avium): 0.205 µg/mL (≈ 0.274 µM); MIC (M. intracelluare; [13]): 0.143 µg/mL (≈ 0.191 µM)

Continued, in another order:

MIC (S. aureus^MS [1]) [µg/mL] | MIC (S. aureus^MS [2]; [9]) [µg/mL] | MIC (M. abscessus; [12]) [µg/mL] | Compound | MIC (C. difficile 152; [3]) [µg/mL] | MIC (E. faecalis; [4]) [µg/mL] | MIC (E. faecalis^LinR) [µg/mL] | MIC (C. difficile 181; [5]) [µg/mL] | MIC (C. difficile 159) [µg/mL] | MIC (S. aureus^VR) [µg/mL] | MIC (C. difficile 174; [6]) [µg/mL] | MIC (E. faecium) [µg/mL] | MIC (E. faecium^LinR) [µg/mL] | MIC (S. epidermis^MR; [7]) [µg/mL] | MIC (C. difficile 161; [8]) [µg/mL] | MIC (S. aureus^MR) [µg/mL] | MIC (E. faecalis^VanA) [µg/mL] | MIC (C. difficile 9689; [10]) [µg/mL] | MIC (C. difficile 173; [11]) [µg/mL] | MIC (E. faecium^VRE) [µg/mL] | MIC (S. epidermis) [µg/mL] | also measured
1 (≈ 0.815 µM) | 1 (≈ 0.815 µM) | – | C/C=C(\NC(=O)c1csc(-c2csc(-c3ccc4c(n3)-c3csc(n3)[C@H]([C@@H](C)O)NC(=O)c3csc(n3)[C@H](C(C)C)NC(=O)c3csc(n3)/C(=C/C)NC(=O)[C@H]([C@@H](C)O)NC(=O)c3csc-4n3)n2)n1)C(=O)NCCn1cnc([N+](=O)[O-])n1 [Compound 42] | 0.5 (≈ 0.408 µM) | 0.5 (≈ 0.408 µM) | 0.5 (≈ 0.408 µM) | 0.5 (≈ 0.408 µM) | 0.5 (≈ 0.408 µM) | 1 (≈ 0.815 µM) | 0.5 (≈ 0.408 µM) | 1 (≈ 0.815 µM) | 1 (≈ 0.815 µM) | 0.5 (≈ 0.408 µM) | 1 (≈ 0.815 µM) | 1 (≈ 0.815 µM) | 0.5 (≈ 0.408 µM) | 0.5 (≈ 0.408 µM) | 0.5 (≈ 0.408 µM) | 1 (≈ 0.815 µM) | – | MIC (S. epidermis; test strain 5, S. epidermis, read-out: MIC): 0.5 µg/mL (≈ 0.408 µM)
0.5 (≈ 0.402 µM) | 0.5 (≈ 0.402 µM) | 0.153 (≈ 0.123 µM) | C/C=C1\NC(=O)[C@H]([C@@H](C)O)NC(=O)c2csc(n2)-c2ccc(-c3nc(-c4nc(C(=O)NC5(C(=O)NCCN6CCN(CCO)CC6)CC5)cs4)cs3)nc2-c2csc(n2)[C@H]([C@@H](C)O)NC(=O)c2csc(n2)[C@H](C(C)C)NC(=O)c2csc1n2 [Compound 32] | – | – | – | – | – | – | – | – | – | – | – | – | – | – | – | – | – | MIC (M. avium): 0.153 µg/mL (≈ 0.123 µM); MIC (M. intracelluare; [13]): 0.116 µg/mL (≈ 0.0934 µM)
